Assay results reported in PubChem BioAssay AID2060889 (Molecular Pharmacology Branch, DTP, NCI, 2025).
pIC50: −log10 of the molar value.

System: LG0567-F671-PDC complex spheroids viability
Experiment: Anticancer human tumor LG0567-F671-PDC patient-derived lung adenocarcinoma cell line growth inhibition [RAS]
Conditions: for pIC50: curve of first compound; for viability, T/C: stronger effect = lower value
In short: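 Agents were tested in combination matrices in half-log decrements from a top concentration at or near clinical Cmax (10 microM if undetermined). Targets were multi-cell spheroids of tumour lines plus HUVEC and MSC stromal cells.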
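Note: spheroids exposed to compound for seven days before readout.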
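Throughout, for pIC50: luminescence signal used as a proxy for viable cells.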

With `CC1(C)CCC(Nc2ncc(C(F)(F)F)c(-c3c[nH]c4c(P(C)(C)=O)c(C#N)ccc34)n2)CN1` (stereo unspecified) + C#Cc1c(F)ccc2cc(O)cc(-c3ncc4c(N5CC6CCC(C5)N6)nc(OCC56CCCN5CC(F)C6)nc4c3F)c12 the pIC50 (second compound 0.0316 µM) was 8.36, the pIC50 (second compound 0.1 µM) was over 9.02 and the pIC50 (second compound 0.316 µM) was over 9.02. It also gave a pIC50 (second compound 1 µM) of over 9.02, a pIC50 (second compound 3.16 µM) of over 9.02 and a pIC50 (second compound 10 µM) of over 9.02. It also gave a viability, T/C (second compound 0.0316 µM, first compound 0.000949 µM) of 61.2%, a viability, T/C (second compound 0.0316 µM, first compound 0.003 µM) of 50.8% and a viability, T/C (second compound 0.0316 µM, first compound 0.00949 µM) of 48.4%. It also gave a viability, T/C (second compound 0.0316 µM, first compound 0.03 µM) of 45.5%, a viability, T/C (second compound 0.0316 µM, first compound 0.0949 µM) of 43.3% and a viability, T/C (second compound 0.0316 µM, first compound 0.3 µM) of 46%. The viability, T/C (second compound 0.1 µM, first compound 0.000949 µM) was 54.5%, the viability, T/C (second compound 0.1 µM, first compound 0.003 µM) was 45.1% and the viability, T/C (second compound 0.1 µM, first compound 0.00949 µM) was 42.7%. It also gave a viability, T/C (second compound 0.1 µM, first compound 0.03 µM) of 45.3%, a viability, T/C (second compound 0.1 µM, first compound 0.0949 µM) of 45.2% and a viability, T/C (second compound 0.1 µM, first compound 0.3 µM) of 44.4%. It also gave a viability, T/C (second compound 0.316 µM, first compound 0.000949 µM) of 40.9%, a viability, T/C (second compound 0.316 µM, first compound 0.003 µM) of 34.8% and a viability, T/C (second compound 0.316 µM, first compound 0.00949 µM) of 36%. It also gave a viability, T/C (second compound 0.316 µM, first compound 0.03 µM) of 32.6%, a viability, T/C (second compound 0.316 µM, first compound 0.0949 µM) of 34.1% and a viability, T/C (second compound 0.316 µM, first compound 0.3 µM) of 34.1%. It also gave a viability, T/C (second compound 1 µM, first compound 0.000949 µM) of 22.6%, a viability, T/C (second compound 1 µM, first compound 0.003 µM) of 21.8% and a viability, T/C (second compound 1 µM, first compound 0.00949 µM) of 23.2%. It also gave a viability, T/C (second compound 1 µM, first compound 0.03 µM) of 21.7%, a viability, T/C (second compound 1 µM, first compound 0.0949 µM) of 23% and a viability, T/C (second compound 1 µM, first compound 0.3 µM) of 25.2%. For the same compound, the viability, T/C (second compound 3.16 µM, first compound 0.000949 µM) was 15.2%, the viability, T/C (second compound 3.16 µM, first compound 0.003 µM) was 12.6% and the viability, T/C (second compound 3.16 µM, first compound 0.00949 µM) was 13.6%. For the same compound, the viability, T/C (second compound 3.16 µM, first compound 0.03 µM) was 15.4%, the viability, T/C (second compound 3.16 µM, first compound 0.0949 µM) was 16% and the viability, T/C (second compound 3.16 µM, first compound 0.3 µM) was 15.3%. The viability, T/C (second compound 10 µM, first compound 0.000949 µM) was 9.1%, the viability, T/C (second compound 10 µM, first compound 0.003 µM) was 8.15% and the viability, T/C (second compound 10 µM, first compound 0.00949 µM) was 8.73%. It also gave a viability, T/C (second compound 10 µM, first compound 0.03 µM) of 8.94%, a viability, T/C (second compound 10 µM, first compound 0.0949 µM) of 9.91% and a viability, T/C (second compound 10 µM, first compound 0.3 µM) of 8.26%.
Work on `Nc1ccn(C2OC(CO)C(O)C2(F)F)c(=O)n1` (stereo unspecified) + CCn1c(-c2cccnc2C(C)OC)c2c3cc(ccc31)N1CCOC(CC(NC(=O)C(C(C)C)N(C)C(=O)C3(F)CCN(C(=O)C#CC(C)(C)N(C)C)CC3)C(=O)N3CCCC(N3)C(=O)OCC(C)(C)C2)C1 yielded a pIC50 (second compound 0.000949 µM) of over 8.50, a pIC50 (second compound 0.003 µM) of over 8.50 and a pIC50 (second compound 0.00949 µM) of over 8.50. For the same compound, the pIC50 (second compound 0.03 µM) was over 8.50, the pIC50 (second compound 0.0949 µM) was over 8.50 and the pIC50 (second compound 0.3 µM) was over 8.50. The viability, T/C (second compound 0.000949 µM, first compound 0.00316 µM) was 15.8%, the viability, T/C (second compound 0.000949 µM, first compound 0.01 µM) was 15.7% and the viability, T/C (second compound 0.000949 µM, first compound 0.0316 µM) was 14.1%. It also gave a viability, T/C (second compound 0.000949 µM, first compound 0.1 µM) of 14.4%, a viability, T/C (second compound 0.000949 µM, first compound 0.316 µM) of 15.3% and a viability, T/C (second compound 0.000949 µM, first compound 1 µM) of 13.8%. For the same compound, the viability, T/C (second compound 0.003 µM, first compound 0.00316 µM) was 15.6%, the viability, T/C (second compound 0.003 µM, first compound 0.01 µM) was 15.7% and the viability, T/C (second compound 0.003 µM, first compound 0.0316 µM) was 13.5%. It also gave a viability, T/C (second compound 0.003 µM, first compound 0.1 µM) of 14.8%, a viability, T/C (second compound 0.003 µM, first compound 0.316 µM) of 15.6% and a viability, T/C (second compound 0.003 µM, first compound 1 µM) of 11.7%. It also gave a viability, T/C (second compound 0.00949 µM, first compound 0.00316 µM) of 12.5%, a viability, T/C (second compound 0.00949 µM, first compound 0.01 µM) of 14.3% and a viability, T/C (second compound 0.00949 µM, first compound 0.0316 µM) of 13.6%. The viability, T/C (second compound 0.00949 µM, first compound 0.1 µM) was 13.2%, the viability, T/C (second compound 0.00949 µM, first compound 0.316 µM) was 14.1% and the viability, T/C (second compound 0.00949 µM, first compound 1 µM) was 14.1%. The viability, T/C (second compound 0.03 µM, first compound 0.00316 µM) was 12.3%, the viability, T/C (second compound 0.03 µM, first compound 0.01 µM) was 13.7% and the viability, T/C (second compound 0.03 µM, first compound 0.0316 µM) was 13.8%. For the same compound, the viability, T/C (second compound 0.03 µM, first compound 0.1 µM) was 15%, the viability, T/C (second compound 0.03 µM, first compound 0.316 µM) was 14% and the viability, T/C (second compound 0.03 µM, first compound 1 µM) was 13%. It also gave a viability, T/C (second compound 0.0949 µM, first compound 0.00316 µM) of 11.1%, a viability, T/C (second compound 0.0949 µM, first compound 0.01 µM) of 10.2% and a viability, T/C (second compound 0.0949 µM, first compound 0.0316 µM) of 11.4%. The viability, T/C (second compound 0.0949 µM, first compound 0.1 µM) was 10.1%, the viability, T/C (second compound 0.0949 µM, first compound 0.316 µM) was 12.1% and the viability, T/C (second compound 0.0949 µM, first compound 1 µM) was 11.6%. It also gave a viability, T/C (second compound 0.3 µM, first compound 0.00316 µM) of 10.6%, a viability, T/C (second compound 0.3 µM, first compound 0.01 µM) of 11.3% and a viability, T/C (second compound 0.3 µM, first compound 0.0316 µM) of 9.37%. The viability, T/C (second compound 0.3 µM, first compound 0.1 µM) was 9.44%, the viability, T/C (second compound 0.3 µM, first compound 0.316 µM) was 9.59% and the viability, T/C (second compound 0.3 µM, first compound 1 µM) was 10%.
For `CC1(C)CCC(Nc2ncc(C(F)(F)F)c(-c3c[nH]c4c(P(C)(C)=O)c(C#N)ccc34)n2)CN1` (stereo unspecified) + CCn1c(-c2cc(N3CCN(C)CC3)cnc2C(C)OC)c2c3cc(ccc31)-c1csc(n1)CC(NC(=O)C1CC1C)C(=O)N1CCCC(N1)C(=O)OCC(C)(C)C2, the pIC50 (second compound 0.000949 µM) was over 9.02, the pIC50 (second compound 0.003 µM) was over 9.02 and the pIC50 (second compound 0.00949 µM) was over 9.02. The pIC50 (second compound 0.03 µM) was over 9.02, the pIC50 (second compound 0.0949 µM) was over 9.02 and the pIC50 (second compound 0.3 µM) was over 9.02. The viability, T/C (second compound 0.000949 µM, first compound 0.000949 µM) was 18.6%, the viability, T/C (second compound 0.000949 µM, first compound 0.003 µM) was 17.4% and the viability, T/C (second compound 0.000949 µM, first compound 0.00949 µM) was 15.6%. For the same compound, the viability, T/C (second compound 0.000949 µM, first compound 0.03 µM) was 18.6%, the viability, T/C (second compound 0.000949 µM, first compound 0.0949 µM) was 19.4% and the viability, T/C (second compound 0.000949 µM, first compound 0.3 µM) was 20.3%. It also gave a viability, T/C (second compound 0.003 µM, first compound 0.000949 µM) of 9.04%, a viability, T/C (second compound 0.003 µM, first compound 0.003 µM) of 8.93% and a viability, T/C (second compound 0.003 µM, first compound 0.00949 µM) of 9.61%. For the same compound, the viability, T/C (second compound 0.003 µM, first compound 0.03 µM) was 8.68%, the viability, T/C (second compound 0.003 µM, first compound 0.0949 µM) was 10.7% and the viability, T/C (second compound 0.003 µM, first compound 0.3 µM) was 11.1%. For the same compound, the viability, T/C (second compound 0.00949 µM, first compound 0.000949 µM) was 5.65%, the viability, T/C (second compound 0.00949 µM, first compound 0.003 µM) was 5.79% and the viability, T/C (second compound 0.00949 µM, first compound 0.00949 µM) was 5.79%. For the same compound, the viability, T/C (second compound 0.00949 µM, first compound 0.03 µM) was 6.44%, the viability, T/C (second compound 0.00949 µM, first compound 0.0949 µM) was 6.98% and the viability, T/C (second compound 0.00949 µM, first compound 0.3 µM) was 7.15%. It also gave a viability, T/C (second compound 0.03 µM, first compound 0.000949 µM) of 4.09%, a viability, T/C (second compound 0.03 µM, first compound 0.003 µM) of 4.19% and a viability, T/C (second compound 0.03 µM, first compound 0.00949 µM) of 4.86%. The viability, T/C (second compound 0.03 µM, first compound 0.03 µM) was 4.81%, the viability, T/C (second compound 0.03 µM, first compound 0.0949 µM) was 5.36% and the viability, T/C (second compound 0.03 µM, first compound 0.3 µM) was 5.18%. The viability, T/C (second compound 0.0949 µM, first compound 0.000949 µM) was 2.85%, the viability, T/C (second compound 0.0949 µM, first compound 0.003 µM) was 3.65% and the viability, T/C (second compound 0.0949 µM, first compound 0.00949 µM) was 4.21%. The viability, T/C (second compound 0.0949 µM, first compound 0.03 µM) was 4.25%, the viability, T/C (second compound 0.0949 µM, first compound 0.0949 µM) was 4.38% and the viability, T/C (second compound 0.0949 µM, first compound 0.3 µM) was 4.66%. It also gave a viability, T/C (second compound 0.3 µM, first compound 0.000949 µM) of 2.87%, a viability, T/C (second compound 0.3 µM, first compound 0.003 µM) of 2.91% and a viability, T/C (second compound 0.3 µM, first compound 0.00949 µM) of 3.44%. The viability, T/C (second compound 0.3 µM, first compound 0.03 µM) was 3.64%, the viability, T/C (second compound 0.3 µM, first compound 0.0949 µM) was 4.02% and the viability, T/C (second compound 0.3 µM, first compound 0.3 µM) was 3.88%.
